A short description of data set [1]: Microsomal stability assay, rat liver microsomes. The settings on record: pooled liver microsomes, pH 7.4, rat liver microsomes 0.5 mg/mL, NADPH. Format: in vitro ADME. The protocol:
Microsomal stability was determined using 0.5 mg/mL of pooled human, mouse, or rat liver microsomes (Thermo Fisher Scientific) in 90 mM TRIS-Cl buffer (pH 7.4) containing 2 mM NADPH and 2 mM MgCl2. Test compounds (10 μM) were added, and the resulting mixture was incubated at 37 °C for 10, 60, 120, and 180 min. The reactions were terminated by the addition of four volumes of ice-cold methanol, followed by vigorous mixing. The samples were left at −20 °C for 30 min and then stored at 4 °C overnight. The next day, samples were centrifuged, and supernatants were diluted with four volumes of 30% methanol in water. Zero time points were prepared by adding ice-cold methanol to the mixture of compounds and cofactors prior to the addition of microsomes. The samples were then analyzed using the Echo-MS system (SCIEX) with MRM transition monitoring, except for compound 3af, which was analyzed by LC–MS/MS as described in the plasma stability assay.

The subject of data set [2] is TGFβ-stimulated LX2 hepatic stellate cells. Briefly: Antifibrotic efficacy: profibrotic gene expression in TGFβ-stimulated LX2 hepatic stellate cells (RT-qPCR). It counts as cell-based, human. The settings on record: TGFβ-stimulated LX2, 48 h, RT-qPCR normalized to ACTB. As to the method: LX2 cells were then stimulated with transforming growth factor-β1 (TGFβ1; PeproTech, Thermo Fisher Scientific) at 5 ng/mL to induce profibrotic signaling. […] After 48 h of treatment, cells were harvested into 100 μL RA1 buffer, and total RNA was then isolated using the NucleoSpin 96 RNA Kit (Macherey-Nagel, Düren, Germany) and reverse-transcribed into cDNA using the LunaScript RT SuperMix Kit (New England Biolabs, Ipswich, MA, USA). Quantitative real-time PCR (RT-qPCR) was used to determine mRNA expression levels of selected profibrotic markers: αSMA (ACTA2), collagen α-2(I) chain (COL1A2), and fibronectin 1 (FN1), and the housekeeping gene β-actin (ACTB). Amplification was carried out using Luna Universal qPCR Master Mix (New England Biolabs) and primer pairs for individual genes as follows: ACTA2: forward primer: [NT], reverse primer: [NT]; COL1A2: forward primer: [NT], reverse primer: [NT]; FN1: forward primer: [NT], reverse primer: [NT]; ACTB: forward primer: [NT], reverse primer: [NT] (Eurofins Genomics). Data were normalized to ACTB expression and analyzed using the ΔΔCt method.

For data set [3], the target named is T1, human galectin-3C (Gal-3C, C-terminal CRD of galectin-3) (Homo sapiens, UniProt P17931).
T1 construct: only the C-terminal domain was used (Gal-3C); 6xHis tag with TEV protease site (N, cleaved yes); made in house; host or cells: BL21 Escherichia coli (pET-15b)
Kind of data set: Competitive fluorescence polarization assay, Gal-3C. Format: binding. Put shortly: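 Competitive fluorescence polarization (anisotropy) with a fluorescent probe; full-length Gal-1 and C-terminal CRD construct of Gal-3. Read after 30–60 min incubation at 25 °C. Kd fitted with Wang's exact cubic competitive model, rmin/rmax fixed from direct binding.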

Data set [4] in a line: Plasma protein binding, summary across species. Format: in vitro ADME. The settings on record: summary across human, mouse and rat plasma. The protocol: Test compound (10 μM) was incubated at 37 °C for 4 h with mouse, rat, or human plasma (Biowest) in the donor well of a rapid equilibrium dialysis plate (Thermo Fisher Scientific). PBS was placed in the acceptor well. To stop the assay, samples were collected from both wells, and an equal volume of plasma was added to the PBS sample, and vice versa. Proteins were then precipitated by adding three volumes of ice-cold methanol. Samples were mixed gently, kept at −20 °C for 30 min, and then stored at 4 °C overnight. The next day, the samples were centrifuged, and the supernatants were diluted with four volumes of 30% methanol in water. The samples were then analyzed using the Echo-MS system (SCIEX) with MRM transition monitoring, except for compound 3af, which was analyzed by LC–MS/MS as described in the plasma stability assay.

SMILES strings stand for the structures. Like-named read-outs stand apart in the source and are kept apart here.

T1 sequence (P17931 118-248 limits assumed): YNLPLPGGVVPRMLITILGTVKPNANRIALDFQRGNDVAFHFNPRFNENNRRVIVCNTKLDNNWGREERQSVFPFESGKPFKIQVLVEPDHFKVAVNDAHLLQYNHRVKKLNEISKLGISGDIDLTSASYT

Compound `CC(=O)N(c1cc(C(=O)O)cc2[nH]ccc12)[C@@H]1O[C@H](CO)[C@@H](S[C@@H]2O[C@H](CO)[C@H](O)[C@H](n3cc(-c4cccc(F)c4)nn3)[C@H]2O)[C@H](O)[C@H]1O` [Compound 11, N-[4-S-(3-Deoxy-3-(4-(3-fluorophenyl)-1H-1,2,3-triazol-1-yl)-β-D-galactopyranosyl)-4-thio-β-D-glucopyranosyl]-N-(6-carboxy-1H-indol-4-yl)acetamide] had a microsomal CLint at 10 μM in data set [1] of less than 2 µL/min/mg. The “ACTA2 mRNA expression” value in data set [2] is “dose-dependent downregulation”. Also, the “COL1A2 mRNA expression” value in data set [2] is reported as “dose-dependent downregulation”. Besides, the “FN1 mRNA expression” value in data set [2] is reported as “dose-dependent downregulation”. For the same compound, the IC50 stood at 57.7 nM in data set [3] (CSV supplement, unrounded mean, read-out: Gal3C_IC50_mean_uM) and 58 ± 10 nM in data set [3] (four-parameter logistic model, mean ± SD, read-out: IC50 Gal-3C). Further, the Kd in data set [3] (CSV supplement, unrounded mean, read-out: Gal3C_Kd_mean_uM) was 5.71 nM; in data set [3] (competitive fluorescence polarization, mean ± SD, read-out: Kd Gal-3C), 5.7 ± 2 nM. In data set [4], this compound had a fraction unbound at 4 h, 10 μM of 0.1 to 0.78.

Values taken from publication PMC12670426 (Journal of Medicinal Chemistry, 2025).
